Reference: the NIST ThermoML archive (doi:10.1021/je800193a)

Experiment: excess molar enthalpy (molar enthalpy of mixing); xn = mol fraction of the nth substance listed
Conditions: 101.3 kPa, Liquid, Flow calorimetry

CC(=O)c1ccccc1 [acetophenone] + C1CCCCC1
excess molar enthalpy [kcal/mol]
Conditions | 298.2 K | 313.2 K | 328.2 K | 338.2 K | 348.2 K
x1 = 0.1004 | 0.18 | 0.19 | 0.193 | 0.195 | 0.196
x1 = 0.1999 | 0.264 | 0.285 | 0.295 | 0.302 | 0.304
x1 = 0.2999 | 0.305 | 0.336 | 0.353 | 0.362 | 0.364
x1 = 0.3499 | 0.317 | 0.35 | 0.368 | 0.377 | 0.379
x1 = 0.4002 | 0.323 | 0.356 | 0.374 | 0.385 | 0.388
x1 = 0.4497 | 0.323 | 0.357 | 0.375 | 0.386 | 0.387
x1 = 0.4996 | 0.32 | 0.352 | 0.37 | 0.378 | 0.382
x1 = 0.5498 | 0.312 | 0.343 | 0.359 | 0.367 | 0.371
x1 = 0.6005 | 0.299 | 0.327 | 0.341 | 0.349 | 0.353
x1 = 0.6503 | 0.282 | 0.307 | 0.319 | 0.326 | 0.329
x1 = 0.7004 | 0.261 | 0.28 | 0.289 | 0.296 | 0.299
x1 = 0.8005 | 0.2 | 0.209 | 0.213 | 0.218 | 0.221
x1 = 0.8995 | 0.114 | 0.117 | 0.118 | 0.121 | 0.122

CC(=O)c1ccccc1 [acetophenone] + O
excess molar enthalpy [kcal/mol]
Conditions | 298.2 K | 313.2 K | 328.2 K | 338.2 K | 348.2 K
x1 = 0.1002 | 0.0169 | 0.0217 | 0.0313 | 0.0342 | 0.0399
x1 = 0.1997 | 0.033 | 0.0424 | 0.0592 | 0.0608 | 0.0772
x1 = 0.3001 | 0.0492 | 0.0636 | 0.0876 | 0.095 | 0.115
x1 = 0.3991 | 0.0652 | 0.0846 | 0.116 | 0.124 | 0.153
x1 = 0.5003 | 0.0816 | 0.106 | 0.145 | 0.156 | 0.192
x1 = 0.5991 | 0.0975 | 0.127 | 0.173 | 0.188 | 0.23
x1 = 0.6986 | 0.113 | 0.148 | 0.201 | 0.221 | 0.269
x1 = 0.7987 | 0.129 | 0.168 | 0.229 | 0.253 | 0.308
x1 = 0.8515 | 0.138 | 0.175 | 0.24 | 0.245 | 0.274
x1 = 0.8967 | 0.141 | 0.16 | 0.189 | 0.192 | 0.204
x1 = 0.9534 | 0.0718 | 0.0793 | 0.0926 | 0.0937 | 0.1

CC(=O)c1ccccc1 [acetophenone] + CCCCO
excess molar enthalpy [kcal/mol]
Conditions | 298.2 K | 313.2 K | 328.2 K | 338.2 K | 348.2 K
x1 = 0.0996 | 0.149 | 0.172 | 0.187 | 0.193 | 0.197
x1 = 0.2005 | 0.241 | 0.283 | 0.314 | 0.326 | 0.335
x1 = 0.3001 | 0.298 | 0.357 | 0.394 | 0.412 | 0.423
x1 = 0.3501 | 0.317 | 0.379 | 0.422 | 0.44 | 0.452
x1 = 0.4002 | 0.331 | 0.396 | 0.441 | 0.46 | 0.472
x1 = 0.4504 | 0.34 | 0.406 | 0.452 | 0.471 | 0.483
x1 = 0.5005 | 0.344 | 0.41 | 0.456 | 0.473 | 0.485
x1 = 0.5506 | 0.343 | 0.407 | 0.452 | 0.469 | 0.479
x1 = 0.6006 | 0.337 | 0.399 | 0.44 | 0.455 | 0.463
x1 = 0.6504 | 0.326 | 0.382 | 0.419 | 0.432 | 0.44
x1 = 0.7001 | 0.309 | 0.358 | 0.391 | 0.4 | 0.407
x1 = 0.8 | 0.252 | 0.285 | 0.305 | 0.311 | 0.316
x1 = 0.9001 | 0.154 | 0.17 | 0.176 | 0.18 | 0.184

CC(=O)c1ccccc1 [acetophenone] + CCCCCO
excess molar enthalpy [kcal/mol]
Conditions | 298.2 K | 313.2 K | 328.2 K | 338.2 K | 348.2 K
x1 = 0.1003 | 0.151 | 0.174 | 0.186 | 0.19 | 0.192
x1 = 0.1998 | 0.24 | 0.283 | 0.311 | 0.324 | 0.328
x1 = 0.2998 | 0.298 | 0.356 | 0.394 | 0.412 | 0.417
x1 = 0.3497 | 0.316 | 0.378 | 0.421 | 0.44 | 0.447
x1 = 0.4001 | 0.33 | 0.396 | 0.441 | 0.461 | 0.468
x1 = 0.4496 | 0.338 | 0.407 | 0.453 | 0.473 | 0.48
x1 = 0.4994 | 0.343 | 0.411 | 0.457 | 0.477 | 0.484
x1 = 0.5497 | 0.342 | 0.41 | 0.453 | 0.473 | 0.478
x1 = 0.6004 | 0.336 | 0.402 | 0.442 | 0.459 | 0.464
x1 = 0.6501 | 0.325 | 0.386 | 0.422 | 0.438 | 0.441
x1 = 0.7003 | 0.307 | 0.363 | 0.393 | 0.408 | 0.41
x1 = 0.8004 | 0.252 | 0.291 | 0.306 | 0.315 | 0.318
x1 = 0.8995 | 0.156 | 0.174 | 0.177 | 0.182 | 0.184

CC(=O)c1ccccc1 [acetophenone] + CCCCCCC
excess molar enthalpy [kcal/mol]
Conditions | 298.2 K | 313.2 K | 328.2 K | 338.2 K | 348.2 K
x1 = 0.0999 | 0.173 | 0.177 | 0.183 | 0.184 | 0.184
x1 = 0.2002 | 0.271 | 0.285 | 0.298 | 0.301 | 0.302
x1 = 0.3005 | 0.313 | 0.341 | 0.361 | 0.369 | 0.369
x1 = 0.3498 | 0.323 | 0.354 | 0.378 | 0.388 | 0.389
x1 = 0.4007 | 0.326 | 0.362 | 0.388 | 0.398 | 0.4
x1 = 0.4504 | 0.327 | 0.362 | 0.391 | 0.402 | 0.404
x1 = 0.5003 | 0.322 | 0.358 | 0.387 | 0.399 | 0.401
x1 = 0.5504 | 0.313 | 0.348 | 0.378 | 0.39 | 0.39
x1 = 0.6006 | 0.301 | 0.334 | 0.362 | 0.373 | 0.374
x1 = 0.6496 | 0.285 | 0.316 | 0.342 | 0.352 | 0.354
x1 = 0.6998 | 0.264 | 0.291 | 0.315 | 0.323 | 0.326
x1 = 0.8001 | 0.208 | 0.224 | 0.241 | 0.245 | 0.246
x1 = 0.8999 | 0.121 | 0.125 | 0.135 | 0.136 | 0.138
